This data set can be described thus: Log P by HPLC on reversed phase columns, method [a] (EEC directive 79/831 Annex V.A8). Conditions: reversed phase HPLC column, read-out: logP. The class given is physicochemical. The method, boiled down:
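Log P calibrated with C3–C16 straight-chain alkan-2-ones of known Log P, interpolating linearly between retention times. Method per EEC 79/831 Annex V.A8: reversed-phase LC-UV in the acidic range, water/0.1% formic acid and acetonitrile gradient from 10% to 95% acetonitrile.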

Where [1] appears, read: log P determined according to method [a] (HPLC on reversed phase columns).
[2] abbreviates: method [a], HPLC on reversed phase columns.

Like-named read-outs stand apart in the source and are kept apart here.

With `Fc1ccc(C2(Oc3ncc(-c4nnc(C(F)F)o4)cn3)CC2)cc1` [I.149, 5-[5-(difluoromethyl)-1,3,4-oxadiazol-2-yl]-2-{[1-(4-fluorophenyl)cyclopropyl]oxy}pyrimidine], the chromatographic logP under setting [1] was 3.19.

Consider `Cc1ccc(C2(Nc3ncc(-c4nnc(C(F)F)o4)cn3)COC2)cc1` [I.158, 5-[5-(difluoromethyl)-1,3,4-oxadiazol-2-yl]-N-[3-(4-methylphenyl)oxetan-3-yl]pyrimidin-2-amine], for which the chromatographic logP under setting [1] worked out at 2.57.

In the case of `Fc1ccccc1C1(Nc2ncc(-c3nnc(C(F)F)s3)cn2)CC1` [I.162, 5-[5-(difluoromethyl)-1,3,4-thiadiazol-2-yl]-N-[1-(2-fluorophenyl)cyclopropyl]pyrimidin-2-amine], the chromatographic logP under setting [1] is 3.22.

For the molecule `FC(F)c1nnc(-c2cnc(NC3(c4ccccc4Cl)CC3)nc2)o1` [I.163, N-[1-(2-chlorophenyl)cyclopropyl]-5-[5-(difluoromethyl)-1,3,4-oxadiazol-2-yl]pyrimidin-2-amine], the chromatographic logP under setting [1] came to 3.34.

In the case of `Fc1cccc(F)c1C1(Nc2ncc(-c3nnc(C(F)F)o3)cn2)CC1` [I.164, 5-[5-(difluoromethyl)-1,3,4-oxadiazol-2-yl]-N-[1-(2,6-difluorophenyl)cyclopropyl]pyrimidin-2-amine], the chromatographic logP under setting [1] is 2.95.

In the case of `Fc1cccc(F)c1C1(Oc2ncc(-c3nnc(C(F)F)o3)cn2)CC1` [I.167, 5-[5-(difluoromethyl)-1,3,4-oxadiazol-2-yl]-2-{[1-(2,6-difluorophenyl)cyclopropyl]oxy}pyrimidine], the chromatographic logP under setting [1] worked out at 3.25.

Take `CC(C)(Nc1ncc(-c2nnc(C(F)F)o2)cn1)c1c(F)cccc1F` [I.168, 5-[5-(difluoromethyl)-1,3,4-oxadiazol-2-yl]-N-[2-(2,6-difluorophenyl)propan-2-yl]pyrimidin-2-amine]: under setting [1], the chromatographic logP was determined as 3.34.

As for `FC(F)c1nnc(-c2cnc(NC3(c4ccccc4Cl)CCC3)nc2)o1` [I.174, N-[1-(2-chlorophenyl)cyclobutyl]-5-[5-(difluoromethyl)-1,3,4-oxadiazol-2-yl]pyrimidin-2-amine], the chromatographic logP under setting [2] is 3.81.

`Fc1ccccc1C1(Nc2ncc(-c3nnc(C(F)(F)F)s3)cn2)CC1` [I.178, N-[1-(2-fluorophenyl)cyclopropyl]-5-[5-(trifluoromethyl)-1,3,4-thiadiazol-2-yl]pyrimidin-2-amine]: the chromatographic logP under setting [2] turned out to be 3.79.

Take `Fc1ccccc1C1(Nc2ncc(-c3nnc(C(F)(F)Cl)o3)cn2)CC1` [I.179, 5-{5-[chloro(difluoro)methyl]-1,3,4-oxadiazol-2-yl}-N-[1-(2-fluorophenyl)cyclopropyl]pyrimidin-2-amine]: under setting [2], the chromatographic logP turned out to be 3.76.

In the case of `O=C(c1ccc(F)cc1F)N(C(=O)c1ccc(F)cc1F)c1ncc(-c2nnc(C(F)F)o2)cn1` [I.185, N-(2,4-difluorobenzoyl)-N-{5-[5-(difluoromethyl)-1,3,4-oxadiazol-2-yl]pyrimidin-2-yl}-2,4-difluorobenzamide], the chromatographic logP under setting [2] was found to be 3.59.

In the case of `CC(C)C1(Nc2ncc(-c3nnc(C(F)F)o3)cn2)CC1` [I.187, 5-[5-(difluoromethyl)-1,3,4-oxadiazol-2-yl]-N-(1-isopropylcyclopropyl)pyrimidin-2-amine], under setting [2], the chromatographic logP is 2.65.

For `FC(F)c1nnc(-c2cnc(NC3(c4ccccc4)CC3)nc2)o1` [I.195, 5-[5-(difluoromethyl)-1,3,4-oxadiazol-2-yl]-N-(1-phenylcyclopropyl)pyrimidin-2-amine], the chromatographic logP under setting [2] worked out at 2.62.

Consider `CC(C)(Nc1ncc(-c2nnc(C(F)F)o2)cn1)c1ccccc1` [I.197, 5-[5-(difluoromethyl)-1,3,4-oxadiazol-2-yl]-N-(2-phenylpropan-2-yl)pyrimidin-2-amine], for which the chromatographic logP under setting [2] came to 3.08.

For the molecule `CC(C)(Nc1ncc(-c2nnc(C(F)F)o2)cn1)c1ccccn1` [I.198, 5-[5-(difluoromethyl)-1,3,4-oxadiazol-2-yl]-N-[2-(pyridin-2-yl)propan-2-yl]pyrimidin-2-amine], under setting [2], the chromatographic logP is 1.11.

On to `CC(C)(Nc1ncc(-c2nnc(C(F)F)o2)cn1)c1cccnc1` [I.199, 5-[5-(difluoromethyl)-1,3,4-oxadiazol-2-yl]-N-[2-(pyridin-3-yl)propan-2-yl]pyrimidin-2-amine], for which the chromatographic logP under setting [2] came out at 0.91.

Turning to `Fc1ccc(CCNc2ncc(-c3nnc(C(F)F)o3)cn2)cc1` [I.200, 5-[5-(difluoromethyl)-1,3,4-oxadiazol-2-yl]-N-[2-(4-fluorophenyl)ethyl]pyrimidin-2-amine], the chromatographic logP under setting [2] is 2.84.

Take `FC(F)c1nnc(-c2cnc(NC3(Cc4ccccc4)CC3)nc2)o1` [I.201, N-(1-benzylcyclopropyl)-5-[5-(difluoromethyl)-1,3,4-oxadiazol-2-yl]pyrimidin-2-amine]: the chromatographic logP under setting [2] is 2.99.

As for `Cc1cccc(C2(Nc3ncc(-c4nnc(C(F)F)o4)cn3)CC2)c1` [I.202, 5-[5-(difluoromethyl)-1,3,4-oxadiazol-2-yl]-N-[1-(3-methylphenyl)cyclopropyl]pyrimidin-2-amine], under setting [2], the chromatographic logP amounted to 2.95.

In the case of `Cc1ccnc(C2(Nc3ncc(-c4nnc(C(F)F)o4)cn3)CC2)c1` [I.203, 5-[5-(difluoromethyl)-1,3,4-oxadiazol-2-yl]-N-[1-(4-methylpyridin-2-yl)cyclopropyl]pyrimidin-2-amine], under setting [2], the chromatographic logP amounted to 0.93.

As to `Cc1ccc(C(C)(C)Nc2ncc(-c3nnc(C(F)F)o3)cn2)cc1` [I.204, 5-[5-(difluoromethyl)-1,3,4-oxadiazol-2-yl]-N-[2-(4-methylphenyl)propan-2-yl]pyrimidin-2-amine], the chromatographic logP under setting [2] worked out at 3.46.

For `Cc1ccccc1C(C)(C)Nc1ncc(-c2nnc(C(F)F)o2)cn1` [I.205, 5-[5-(difluoromethyl)-1,3,4-oxadiazol-2-yl]-N-[2-(2-methylphenyl)propan-2-yl]pyrimidin-2-amine], the chromatographic logP under setting [2] stood at 3.28.

In the case of `FC(F)c1nnc(-c2cnc(NC3(c4ccco4)CCCC3)nc2)o1` [I.208, 5-[5-(difluoromethyl)-1,3,4-oxadiazol-2-yl]-N-[1-(2-furyl)cyclopentyl]pyrimidin-2-amine], the chromatographic logP under setting [2] is 3.18.

Take `CC(C)(Nc1ncc(-c2nnc(C(F)F)o2)cn1)c1ccccc1F` [I.212, 5-[5-(difluoromethyl)-1,3,4-oxadiazol-2-yl]-N-[2-(2-fluorophenyl)propan-2-yl]pyrimidin-2-amine]: the chromatographic logP under setting [2] was 3.19.

In the case of `Cc1cccc(C)c1C1(Nc2ncc(-c3nnc(C(F)F)o3)cn2)CC1` [I.216, 5-[5-(difluoromethyl)-1,3,4-oxadiazol-2-yl]-N-[1-(2,6-dimethylphenyl)cyclopropyl]pyrimidin-2-amine], the chromatographic logP under setting [2] was 3.8.

`FC(F)c1nnc(-c2cnc(NC3(c4cccnc4)CCCC3)nc2)o1` [I.218, 5-[5-(difluoromethyl)-1,3,4-oxadiazol-2-yl]-N-[1-(pyridin-3-yl)cyclopentyl]pyrimidin-2-amine]: the chromatographic logP under setting [2] was 1.29.

Regarding `FC(F)c1nnc(-c2cnc(NC3(c4ccccn4)CCCC3)nc2)o1` [I.219, 5-[5-(difluoromethyl)-1,3,4-oxadiazol-2-yl]-N-[1-(pyridin-2-yl)cyclopentyl]pyrimidin-2-amine], the chromatographic logP under setting [2] was found to be 1.38.

On to `Fc1ccc(C2(Nc3ncc(-c4nnc(C(F)F)o4)cn3)CCC2)cc1` [I.220, 5-[5-(difluoromethyl)-1,3,4-oxadiazol-2-yl]-N-[1-(4-fluorophenyl)cyclobutyl]pyrimidin-2-amine], for which the chromatographic logP under setting [2] came out at 3.33.

On to `CN(c1ncc(-c2nnc(C(F)F)o2)cn1)C1(c2ccccc2F)CC1` [I.221, 5-[5-(difluoromethyl)-1,3,4-oxadiazol-2-yl]-N-[1-(2-fluorophenyl)cyclopropyl]-N-methylpyrimidin-2-amine], for which the chromatographic logP under setting [2] stood at 3.98.

On to `COC(=O)C(Nc1ncc(-c2nnc(C(F)F)o2)cn1)c1ccccn1` (stereo not shown) [I.222, methyl ({5-[5-(difluoromethyl)-1,3,4-oxadiazol-2-yl]pyrimidin-2-yl}amino)(pyridin-2-yl)acetate], for which the chromatographic logP under setting [2] was 1.92.

For the molecule `CC(C)(Cc1ccc(F)cc1)Nc1ncc(-c2nnc(C(F)F)o2)cn1` [I.223, 5-[5-(difluoromethyl)-1,3,4-oxadiazol-2-yl]-N-[1-(4-fluorophenyl)-2-methylpropan-2-yl]pyrimidin-2-amine], under setting [2], the chromatographic logP was 3.79.

For the molecule `CC(C)(CNc1ncc(-c2nnc(C(F)F)o2)cn1)c1ccc(F)cc1` [I.224, 5-[5-(difluoromethyl)-1,3,4-oxadiazol-2-yl]-N-[2-(4-fluorophenyl)-2-methylpropyl]pyrimidin-2-amine], the chromatographic logP under setting [2] turned out to be 3.44.

For the molecule `FC(F)c1nnc(-c2cnc(NC3(c4cccs4)CCCC3)nc2)o1` [I.225, 5-[5-(difluoromethyl)-1,3,4-oxadiazol-2-yl]-N-[1-(2-thienyl)cyclopentyl]pyrimidin-2-amine], the chromatographic logP under setting [2] was 3.45.

For `FC(F)c1nnc(-c2cnc(NC3(c4ccc(Cl)cc4)CC3)nc2)o1` [I.226, N-[1-(4-chlorophenyl)cyclopropyl]-5-[5-(difluoromethyl)-1,3,4-oxadiazol-2-yl]pyrimidin-2-amine], under setting [2], the chromatographic logP was found to be 3.16.

For `FC(F)c1nnc(-c2cnc(NC3(c4cccc(Cl)c4)CC3)nc2)o1` [I.227, N-[1-(3-chlorophenyl)cyclopropyl]-5-[5-(difluoromethyl)-1,3,4-oxadiazol-2-yl]pyrimidin-2-amine], under setting [2], the chromatographic logP was determined as 3.11.

Turning to `FC(F)c1nnc(-c2cnc(NC3(c4cc(Cl)ccn4)CC3)nc2)o1` [I.228, N-[1-(4-chloropyridin-2-yl)cyclopropyl]-5-[5-(difluoromethyl)-1,3,4-oxadiazol-2-yl]pyrimidin-2-amine], the chromatographic logP under setting [2] was 2.31.

Turning to `Fc1ccc(C2(Nc3ncc(-c4nnc(C(F)F)o4)cn3)CC2)cc1F` [I.229, 5-[5-(difluoromethyl)-1,3,4-oxadiazol-2-yl]-N-[1-(3,4-difluorophenyl)cyclopropyl]pyrimidin-2-amine], the chromatographic logP under setting [2] was 2.84.

These data come from patent US20220144815A1, “1,3,4-OXADIAZOLES AND THEIR DERIVATIVES AS NEW ANTIFUNGAL AGENTS” (Bayer Aktiengesellschaft, priority 2018, published 2022).
